According to publication PMC10447463, “Data-mining unveils structure–property–activity correlation of viral infectivity enhancing self-assembling peptides” (Nature Communications, 2023):
Where two headings read alike, the source gives them in different places.

Assays:
[1] = system: HIV-1 infection of TZM-bl cells; assay: HIV-1 infectivity enhancement assay, β-galactosidase luminescence; format: cell-based
[2] = Turbidity, derived count rate of scattered light; format: physicochemical; conditions: for Count Rate / kcps: derived count rate of scattered light at 633 nm, 173°, from zeta-potential measurement, 0.1 mg/mL in 1 mM KCl after 1 d at 1 mg/mL in PBS, turbidity / microscopic aggregation, mean of triplicate
In short: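 Samples: 1 mg/mL in PBS pH 7.4 (from DMSO), 1 d at RT, then diluted in 1 mM KCl immediately before measurement. Triplicates, two independent runs averaged.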

[3] = Zeta-potential measurement; format: physicochemical; conditions: for Zeta-Potential / mV: Figure 6C; for Zeta-pot. / mV: zeta potential of peptide, Fig S15 source data
In short: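 Peptides diluted from DMSO stock into PBS pH 7.4 to 1 mg/mL and aged 1 d at RT, then diluted into 1 mM aqueous KCl. Zeta potential derived from electrophoretic mobility via Smoluchowski; triplicates, averaged over two independent experiments.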

[4] = format: physicochemical; set-up: key to Fibril / Fibril Formation / TEM 2cat / Fibril: 1 = fibrils present; 0 non-fibrillar structures; conditions: for Fibril / Fibril Formation: TEM, 1 mg/mL, uranyl acetate stain, qualitative
[5] = log10 of infection relative to EF-C, Figure 6C
[6] = n-fold infection vs virus only, relative to that of EF-C, 1.3 µM peptide
[7] = log10 of derived count rate of scattered light, Figure 6C
[8] = logarithm of count rate in kcps
[9] = Feb2021; figures match the 1.3 µM column
[10] = Feb2021; infectivity relative to virus only
[11] = Feb2021; log10 of infectivity relative to EF-C
[12] = Feb2021; n-fold infectivity relative to EF-C
[13] = Feb2021 run; infectivity n-fold relative to virus alone
[14] = Feb2021 run; log10 of infectivity relative to EF-C
[15] = Feb2021 run; n-fold infectivity relative to EF-C
[16] = infectivity class (low / medium / high) of each library peptide; main list in c1-c6, same classes repeated in sub-lists of sequences containing the hydrophobicity/charge patterns P+,H0,P+,H0,P0,H0,P0; P+,H0,P0,H0,P0,H0,P0; P+,H0,P0,H0
[17] = log10 of HIV-1 infection of TZM-bl cells relative to EF-C; Fig S15 source data; asymmetric std dev errors
[18] = derived count rate of scattered light
[19] = derived count rate of scattered light, mean, std deviation in separate column
[20] = infectivity class (low / medium / high) of the peptide in the sequence-pattern analysis, Fig. S22-A4; class limits not given

Row | Substance | Log10 Infection Rel EF-C [1, 5] | Inf. rel. EF-C [1, 6] | Count Rate / kcps [2] | Log10 Count Rate [2, 7] | Log10 Count Rate [2, 8] | Zeta-Potential / mV ([3]; mean) | Fibril / Fibril Formation [4] | Absolute Infectivity / RLU /s (Feb2021) [1, 9] | n-fold to virus (Feb2021) [1, 10] | Log10 of Rel to EFC (Feb2021) [1, 11] | Rel-to EFC (Feb-2021) [1, 12] | infectivity [1, 16] | Log10 Inf. rel. to EF-C [1, 17] | Zeta Count Rate Category ([2]; category 1 / 0, no key given) | Zeta Count Rate / kcps [2, 18] | Zeta Pot. / mV [3] | Zeta category ( +1 = if > 4 mV;-1 = if < -4 mV; 0 = -4mV to 4 mV) [3] | Zeta-pot. / mV [3] | TEM: 1= fibrils, 0= aggregates (micelle), 0.5 = aggregates and fibrils, -1 = nothing obersved, STD prep [4] | further results
1 | KAKLTCT | -1.177 | 0.07 | 16.8 kcps | 1.225 | 1.225 | -2.2992 mV | 0 |  |  |  |  |  |  |  |  |  |  |  |  | Inf. rel. EF-C ([1]; HIV-1 infection relative to EF-C; Fig 23 plot, panels A and B; mean of 3 values): 0.0665; Inf. rel. EF-C ([1]; HIV-1 infection relative to EF-C; Fig 23 plot, single data point, replicate 1): 0.09602; Inf. rel. EF-C ([1]; HIV-1 infection relative to EF-C; Fig 23 plot, single data point, replicate 2): 0.05821; Inf. rel. EF-C ([1]; HIV-1 infection relative to EF-C; Fig 23 plot, single data point, replicate 3): 0.04527; Zeta pot. / mV ([3]; 1 mg/mL in PBS pH 7.4 from 10 mg/mL DMSO stock, 1 d RT, 60 µL diluted in 600 µL 1 mM KCl, Zetasizer Nano ZS, Smoluchowski, mean of triplicate): -2.2992 mV
2 | KIKIQIW [TM69] |  |  |  |  |  |  |  | 4280 RLU /s | 5.89 | -0.8533 | 0.1402 | medium | -0.8533 | 1 | 144.9 kcps | 12.5 mV | 1 (+1 = if > 4 mV) | 12.5 mV | 1 | n-fold to virus (Feb2021) [1, 13]: 5.89; Log10 of Rel to EFC (Feb2021) [1, 14]: -0.8533; Rel-to EFC (Feb-2021) [1, 15]: 0.1402; Zeta Count Rate / kcps [2, 19]: 144.9 kcps; Zeta Pot. / mV ([3]; mean, Std in separate column): 12.5 mV
3 | CRFRFHFH | -0.2767 | 0.53 | 430.2 kcps | 2.634 | 2.634 | 19.6 mV | 1 |  |  |  |  |  |  |  |  |  |  |  |  | 
4 | KAKQAANMWQ [JG6] |  |  |  |  |  |  |  | 343.3 RLU /s | 1.2875 | -1.514 | 0.03064 | low | -1.514 | 1 | 690.5 kcps | -12.9 mV | -1 (-1 = if < -4 mV) | -12.9 mV | 0.5 | 
5 | KFQFNMW | -0.7437 | 0.18 | 331.6 kcps | 2.521 | 2.521 | 8.763 mV | 1 |  |  |  |  |  |  |  |  |  |  |  |  | 
6 | KYKYQY [KB1] |  |  |  |  |  |  |  | 230 RLU /s | 0.4313 | -1.989 | 0.01026 | low | -1.9887 | 0 | 31.53 kcps | -4.2 mV | -1 (-1 = if < -4 mV) | -4.2 mV | 0 | 
7 | KIKIQII [TG1 / (KM4)] |  |  |  |  |  |  |  | 400 RLU /s | 0.7843 | -1.729 | 0.01867 | low | -1.729 | 1 | 1039 kcps | 5.61 mV | 1 (+1 = if > 4 mV) | 5.61 mV | 1 | n-fold to virus (Feb2021) [1, 13]: 0.7843; Log10 of Rel to EFC (Feb2021) [1, 14]: -1.729; Rel-to EFC (Feb-2021) [1, 15]: 0.01867; infectivity [1, 20]: low; Rel-to EFC (Feb-2021) ([1]; infectivity enhancement relative to EF-C (=1); Feb2021 run): 0.01867; n-fold to virus (Feb2021) ([1]; infectivity n-fold relative to virus only; Feb2021 run): 0.7843; Log10 of Rel to EFC (Feb2021) ([1]; log10 of infectivity relative to EF-C; Feb2021 run): -1.729; Zeta Count Rate / kcps ([2]; derived count rate from zeta measurement, mean): 1039 kcps; Zeta Count Rate / kcps [2, 19]: 1039 kcps; Zeta Count Rate Category ([2]; key not given): 1; Zeta Pot. / mV ([3]; mean, Std in separate column): 5.61 mV
8 | KFKQFFINMWQ [VH14] |  |  |  |  |  |  |  | 14953.33333 RLU /s | 38.67 | -0.03603 | 0.9204 |  | -0.03603 | 1 | 8996 kcps | 7.99 mV | 1 (+1 = if > 4 mV) | 7.99 mV | 0 | infectivity [1, 20]: high
